According to article PMC9401491, “The Novel Nucleoside Analogue ProTide NUC-7738 Overcomes Cancer Resistance Mechanisms In Vitro and in a First-In-Human Phase I Clinical Trial” (Clinical Cancer Research, 2021):

System: NF-κB
Test: NF-κB SEAP reporter and p65 fractionation in THP-1 cells
Format: cell-based
Method: Cells were harvested and lyzed using RIPA lysis and extraction buffer (Thermo Scientific) following manufacturer's protocol. Twenty to 30 μg of total protein lysates was loaded on Mini-PROTEAN TGX precast gels (Bio-Rad). Separated proteins were transferred to a polyvinylidene difluoride (PVDF) membrane using Trans-Blot Turbo Transfer System (Bio-Rad) followed by incubation with primary and horseradish peroxidase (HRP)–conjugated secondary antibodies [anti-mouse, catalog no. 7076S, Cell Signaling Technology (CST) or anti-rabbit, catalog no. 7074S, CST] and ECL Prime Western blotting (GE Healthcare) detection. For fractionation, cells were grown in 10-cm tissue culture plates and treated with 30 or 60 μmol/L of 3′-dA or NUC-7738 for 6 hours. Cells were grown in 10-cm tissue culture plates and fractionated using the Nuclear Extraction Kit (Abcam) following manufacturer's instructions. Twenty-five micrograms of each fraction was used for Western blot (WB) detection. NF-κB p65 antibody (catalog no. 8242, CST), nuclear marker Lamin B1 (catalog no. ab16048, Abcam), cytosolic GAPDH (catalog no. 97166, CST), cleaved PARP (catalog no. 9541, CST), and Actin (MAB1501, Merck) were used.
Figure 5. […] C, NF-κB activity was measured using the SEAP reporter gene assay in THP-1 cells. […] SEAP production as result of NF-κB activity was measured using the QuantiBlue colorimetric enzyme assay. […]

C[C@H](NP(=O)(OC[C@@H]1C[C@@H](O)[C@H](n2cnc3c(N)ncnc32)O1)Oc1ccccc1)C(=O)OCc1ccccc1 (stereo partly drawn) [NUC-7738, 3′-deoxyadenosine-5′-O-phenyl-(benzyloxy-L-alaninyl)-phosphate]
nuclear translocation of NF-κB (NF-κB THP1 reporter cell line, LPS, fractionation and Western blot): a reduction in the nuclear translocation of NF-κB | NF-κB activation (THP-1 SEAP reporter, LPS induced): significantly reduced NF-κB activation
